Assay results taken from USRE32098E (Research and Education Institute, Inc., priority 1978, dated 1986).
Structures can show the parent of a compound that is named as a salt. Where two headings read alike, the source gives them in different places.

Tests used:
[1] = target: T1, TBG (thyroxine-binding globulin) (Homo sapiens, UniProt P05543); experiment: Displacement of radioactive T4 from TBG in a CPBA system; design: AMOUNT T4 DISPLACED FROM TBG: unit not given here
T1 construct: from tissue; host or cells: human serum, diluted 1/32
T1 sequence (P05543 21-415): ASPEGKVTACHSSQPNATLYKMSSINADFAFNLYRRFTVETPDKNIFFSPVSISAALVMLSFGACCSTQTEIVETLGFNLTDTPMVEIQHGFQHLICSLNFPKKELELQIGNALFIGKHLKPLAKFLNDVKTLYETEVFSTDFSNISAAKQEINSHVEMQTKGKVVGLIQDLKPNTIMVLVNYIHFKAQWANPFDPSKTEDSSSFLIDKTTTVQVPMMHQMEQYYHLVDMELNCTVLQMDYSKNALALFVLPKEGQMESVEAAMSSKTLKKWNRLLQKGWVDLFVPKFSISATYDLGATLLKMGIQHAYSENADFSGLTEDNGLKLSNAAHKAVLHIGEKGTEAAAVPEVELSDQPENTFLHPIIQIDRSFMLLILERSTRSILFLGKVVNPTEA

TBG [2] = target: T2, TBG (Homo sapiens, UniProt P05543); experiment: Displacement of radioactive T3 from TBG; assay type: binding
T2 construct: from tissue; host or cells: serum
T2 sequence (P05543 21-415): T1 sequence (P05543 21-415)

sheep serum TBG = experiment: Adequacy of the amount of ANS in T3 RIA: T3-125I bound to T3-binding antibody in presence of sheep serum and ANS versus plain buffer; settings: 200 ug ANS
TBG [3] = experiment: T4 RIA standard curves in barbital buffer and in presence of T4-free serum (FIG. 2); assay type: binding; settings: 25 ul T4-free serum
[4] = tested on: thyroxine binding prealbumin (TBPA); experiment: T4 binding by prealbumin
[5] = tested on: T3-binding sites on the rabbit antiserum; experiment: Affinity for T3-binding sites on the rabbit antiserum
Solubility at pH of RIA = assay type: physicochemical
[6] = tested on: proteins such as thyroxine-binding globulin (TBG), prealbumin (TBPA) and albumin; settings: normal human serum; cited from earlier work
TBG [7] = target: T2, TBG; experiment: Maximal T4-binding capacity of TBG in serum (method of Inada and Sterling); settings: 7 euthyroid subjects with high serum TBG

## O=C1NC(=S)NC1(c1ccccc1)c1ccccc1 [5,5 diphenyl-2 thiohydantoin]
[1]; 100 ug blocking agent
  AMOUNT T4 DISPLACED FROM TBG: 6.1
TBG [2]; 10 ug blocking agent
  AMOUNT T3 DISPLACED FROM TBG: 7.6 ng

## O=S(=O)(O)c1ccc2cc(N=Nc3ccc(Nc4ccccc4)c4ccccc34)c(S(=O)(=O)O)cc2c1 [ANNDS, 3-(4-anilino-1-napthylazo) 2,7-napthalene disulfonic acid]
[1]; 50 ug blocking agent
  AMOUNT T4 DISPLACED FROM TBG: > 20
TBG [2]; 10 ug blocking agent
  AMOUNT T3 DISPLACED FROM TBG: 10.4 ng

## O=S(=O)(O)c1cccc2cccc(Nc3ccccc3)c12 [ANS, 8-anilino-1-napthalene-sulfonic acid]
[1]
  AMOUNT T4 DISPLACED FROM TBG: 18
  T4 displaced from TBG: 18 nanograms (ng)
  concentration of T4 in serum up to which all T4 is displaced: ≤ 72 ug per 100 ml
TBG [2]
  AMOUNT T3 DISPLACED FROM TBG: 11.2 ng
  T3 displaced from TBG: 11.2 nanograms (ng)
  concentration of T3 in serum up to which all T3 may be displaced: ≤ 88 ug T3 per 100 ml
  displacement of T3 bound to TBG: displaces nearly all T3 bound to TBG
  prevention of binding of radioactive T3 to TBG: prevents completely the binding of radioactive T3 to TBG
Sheep serum TBG
  neutralization of the inhibiting effect of sheep serum TBG: almost complete neutralization
Sheep serum TBG; with sheep serum, no stable T3
  radioactivity bound to antibody relative to that in plain buffer: 95-98%
TBG [3]
  blocking of TBG in serum: TBG in the serum was adequately blocked
[4]
  effect on T4 binding by prealbumin: affected
[5]
  affinity for T3-binding sites on the rabbit antiserum: negligible affinity
Solubility at pH of RIA
  solubility compared with Dilantin and tetrachlorthyronine: better solubility at pH of RIA

## CN(C)CCCN1c2ccccc2Sc2ccc(Cl)cc21 [Chlorpromazine HCl]
[1]
  AMOUNT T4 DISPLACED FROM TBG: 5.6
TBG [2]
  AMOUNT T3 DISPLACED FROM TBG: 6.6 ng

## CN1C(=O)CN=C(c2ccccc2)c2cc(Cl)ccc21 [Diazepam]
[1]
  AMOUNT T4 DISPLACED FROM TBG: 6.3
TBG [2]
  AMOUNT T3 DISPLACED FROM TBG: 7.0 ng

## O=C1NC(=O)C(c2ccccc2)(c2ccccc2)N1 [Dilantin]
[1]; 100 ug blocking agent
  AMOUNT T4 DISPLACED FROM TBG: 5.7

## CN(C)CCC=C1c2ccccc2COc2ccccc21 [Doxepin HCl]
[1]
  AMOUNT T4 DISPLACED FROM TBG: 8.2
TBG [2]
  AMOUNT T3 DISPLACED FROM TBG: 10.8 ng

## CC(=O)NCCOC(=O)C(Oc1cccc(C(F)(F)F)c1)c1ccc(Cl)cc1 (centres unmarked) [Halofenate]
[1]; 100 ug blocking agent
  AMOUNT T4 DISPLACED FROM TBG: 8.4
TBG [2]; 10 ug blocking agent
  AMOUNT T3 DISPLACED FROM TBG: 5.2 ng

## CN1CCN(CCCN2c3ccccc3Sc3ccc(Cl)cc32)CC1 [Prochlorperazine]
[1]
  AMOUNT T4 DISPLACED FROM TBG: 7.2
TBG [2]
  AMOUNT T3 DISPLACED FROM TBG: 7.0 ng

## O=C([O-])c1ccccc1O.[Na+] [Sodium Salicylate]
[1]
  AMOUNT T4 DISPLACED FROM TBG: 6.1
TBG [2]
  AMOUNT T3 DISPLACED FROM TBG: 11.0 ng
[4]
  effect on T4 binding by prealbumin: affected

## N[C@@H](Cc1cc(I)c(Oc2ccc(O)c(I)c2)c(I)c1)C(=O)O [T3, triiodothyronine]
[6]
  present as unbound (dialyzable or free) hormone: 0.3%

## C[CH2][Hg][S]c1ccccc1C(=O)[O-].[Na+] [Thimerosal]
[1]
  AMOUNT T4 DISPLACED FROM TBG: 8.4
TBG [2]
  AMOUNT T3 DISPLACED FROM TBG: 8.0 ng

## O=S(=O)(O)c1cccc2ccccc12 [αNapthalene Sulfonic Acid]
[1]; 100 ug blocking agent
  AMOUNT T4 DISPLACED FROM TBG: 3.0
TBG [2]; 100 ug blocking agent
  AMOUNT T3 DISPLACED FROM TBG: 7.0 ng

B1: TBG: thyroxine-binding globulin, serum protein binding thyroid hormones (protein, UniProt P05543 21-415, looked up)
Thyroxine-binding globulin: T1 sequence (P05543 21-415)
TBG [7]
  maximal T4-binding capacity of TBG (mean): 46.9 ug per 100 ml
